Test results as given in US6905706B2, “Medicinal herbal extract carpediol for treating depression” (Swedish Herbal Institute, priority 2002, dated 2005).
“And” between values parts separate entries of the source, which are not always exact repeats. Equal entries are not always repeated.

Experiment: Effect of co-administered extracts on the pharmacokinetics of theophylline in rats
Experimental: Carpediol spissum (Batch No Ex 20404); Swedish Herbal Institute, Gothenburg, Sweden) as described above in Example 1. […] It was analyzed for purity by HPLC, Capillary electrophoresis, ^1H-NMR and ^13C-NMR. • (e) Internal standard: Methyl-4-hydroxybenzoate 99%, F.W. 152.15 Aldrich. • (f) Water, demonized and distilled. • (g) Water for High Performance Capillary Electrophoresis (HPCE), HEWLETT-PACKARD. • (h) Buffer pH=9.3 for HPCE (50 mM Borate). • (i) 0.1N Sodium Hydroxide Solution for HPCE. • (j) Chloroform HPLC grade. • (k) 2-Propanol spectrophotometric grade. • (l) Methanol Chromasorv.
Animals—In this study, 144 time-mated male Wistar rats were used. Breeder: Institute of Fine Organic Chemistry of the National Academy of Science, Yerevan. The initial weight of the animals: 130-170 g (mean weight 149.93±12.4 g). […] All animals were clinically examined upon arrival and any animal showing signs of abnormality or disease was excluded. Animals considered unsuitable for the study were replaced before the start. No animal was replaced following the start of the study.
Dosage and Administration—An appropriate amount of herbal extract was dissolved in distilled water and given at 10:00-10:30 am by oral gavage. Suspensions were shaken gently before oral administration. Suspensions were prepared fresh every day. Control animals were given an appropriate volume of drinking water. Blood samples from rats receiving the carrier only were also analyzed.
Groups of six animals were treated orally with water (10 ml×2 times per day) for three days. 60 minutes after last administration of water, a solution of Aminophylline (10 ml/kg) was given to each animal in dose of 240 mg/kg (corresponding to 192 mg/kg of Theophylline) and blood samples were taken 0.25, 0.5, 1.0, 2.0, 4.0, 6.0 and 8.0 hours after the theophylline administration. A separate group of animals was used for each time point.
It was administered orally in a volume of 10 ml/kg of body weight. Freshly prepared extract was administered two times daily for 3 consecutive days. Single dose—25 mg/kg, daily dose—50 mg/kg. 60 minutes after last administration, a water solution of Aminophylline (10 ml/kg) was given to each animal in dose of 240 mg/kg (corresponding to 192 mg/kg of Theophylline) and blood samples were taken 0.25, 0.5, 1.0, 2.0, 4.0, 6.0 and 8.0 hours after the theophylline administration. A separate group of animals was used for each time point.
One tablet of Jarsin 300 was suspended in 10 ml of water and administered two times daily for 3 consecutive days. 60 minutes after last administration, water solution of Aminophylline (10 ml/kg) was given to each animal in dose of 240 mg/kg (corresponding to 192 mg/kg of Theophylline) and blood samples were taken 0.25, 0.5, 1.0, 2.0, 4.0, 6.0 and 8.0 hours after the theophylline administration. A separate group of animals was used for each time point.
Sampling of blood and sample preparation—Animals were sacrificed by laboratory guillotine. Following decapitation, blood was collected separately in centrifuge tubes and centrifuged at 3000 rpm for 10 min. Blood serum was separated and 50 μl was taken for theophylline assay. Conservation of the samples: the centrifuge tubes were closed with caps, frozen and stored in a freezer for 1-3 days prior to bio-assay.
Analytical Method: Capillary Electrophoresis—A modified capillary electrophoresis method was used, using an internal standard and as a mobile phase 50 mM borate buffer (pH 9.3) without SDS.
Pre-assay preparation—The Ramzan et al. method (52) of extraction of theophylline from serum was modified as follows. 50 μl of blood serum was added to 10 μl of an internal standard methanol solution (methyl-paraben, 60 μg/ml) in centrifuge tube to obtain final concentration of methyl paraben 10 μg/ml. The solution was vortexed vigorously for 10 sec and 1 ml of solvent system of isopropanol. and chloroform in a 5:95 ratio was added for extraction.

[1] = Group 1 (water control), rats, calculated by mean concentrations
[2] = Group 1 (water control), rats, mean of 6 series (column A)
[3] = Group 2 (CRE pretreatment), rats, calculated by mean concentrations
[4] = Group 2 (CRE pretreatment), rats, mean of 6 series (column A)
[5] = Group 3 (Jarsin 300 pretreatment), rats, calculated by mean concentrations
[6] = Group 3 (Jarsin 300 pretreatment), rats, mean of 6 series (column A)

Structure (SMILES): Cn1c(=O)c2[nH]cnc2n(C)c1=O [Theophylline, 1,3-dimethylxantin]
- Concentration of Theophylline in Rat Serum (Group 1 (water control), aminophylline 240 mg/kg p.o., 15 min, single rat): 181.11 µg/mL and 172.059 µg/mL and 225.306 µg/mL and 153.35 µg/mL and 146.67 µg/mL and 101.82 µg/mL
- Concentration of Theophylline in Rat Serum (Group 1 (water control), aminophylline 240 mg/kg p.o., 30 min, single rat): 135.41 µg/mL and 89.49 µg/mL and 50.10 µg/mL and 143.18 µg/mL and 337.56 µg/mL and 101.83 µg/mL
- Concentration of Theophylline in Rat Serum (Group 1 (water control), aminophylline 240 mg/kg p.o., 60 min, single rat): 138.11 µg/mL and 194.27 µg/mL and 255.06 µg/mL and 154.77 µg/mL and 231.79 µg/mL and 86.37 µg/mL
- Concentration of Theophylline in Rat Serum (Group 1 (water control), aminophylline 240 mg/kg p.o., 120 min, single rat): 57.30 µg/mL and 71.98 µg/mL and 61.23 µg/mL and 97.22 µg/mL and 56.61 µg/mL
- Concentration of Theophylline in Rat Serum (Group 1 (water control), aminophylline 240 mg/kg p.o., 240 min, single rat): 77.66 µg/mL and 94.86 µg/mL and 114.84 µg/mL and 61.03 µg/mL and 105.31 µg/mL and 169.15 µg/mL
- Concentration of Theophylline in Rat Serum (Group 1 (water control), aminophylline 240 mg/kg p.o., 360 min, single rat): 43.95 µg/mL and 42.46 µg/mL and 73.58 µg/mL and 77.92 µg/mL and 81.94 µg/mL and 31.38 µg/mL
- Concentration of Theophylline in Rat Serum (Group 1 (water control), aminophylline 240 mg/kg p.o., 480 min, single rat): 22.05 µg/mL and 69.25 µg/mL and 63.68 µg/mL and 44.98 µg/mL and 89.99 µg/mL and 16.09 µg/mL
- Clt of Theophylline [1]: 0.4642 mL/min
- Kel of Theophylline [1]: 0.149 h⁻¹
- Vd of Theophylline [1]: 0.1871 L
- Clt of Theophylline, Mean [2]: 0.4973 mL/min and 0.497 ± 0.055 mL/min
- Cmax of Theophylline, Mean [2]: 195.2 ± 32.9 µg/mL
- Kel of Theophylline, Mean [2]: 0.1638 h⁻¹ and 0.164 ± 0.02 h⁻¹
- MRT of Theophylline, Mean [2]: 6.6239 ± 0.70 h
- Vd of Theophylline, Mean [2]: 0.186 ± 0.015 L
- t1/2 of Theophylline, Mean [2]: 4.504 ± 0.47 h
- Clt of Theophylline (Group 1 (water control), rats, single series): 0.441 mL/min and 0.3881 mL/min and 0.4945 mL/min and 0.3453 mL/min and 0.6439 mL/min and 0.671 mL/min
- Concentration of Theophylline in Rat Serum (Group 2 (CRE pretreatment 3 days), aminophylline 240 mg/kg p.o., 15 min, single rat): 192.873 µg/mL and 144.71 µg/mL and 164.57 µg/mL and 161.40 µg/mL and 98.74 µg/mL and 8.06 µg/mL
- Concentration of Theophylline in Rat Serum (Group 2 (CRE pretreatment 3 days), aminophylline 240 mg/kg p.o., 30 min, single rat): 190.52 µg/mL and 145.07 µg/mL and 223.28 µg/mL and 30.54 µg/mL and 154.41 µg/mL and 81.52 µg/mL
- Concentration of Theophylline in Rat Serum (Group 2 (CRE pretreatment 3 days), aminophylline 240 mg/kg p.o., 60 min, single rat): 158.01 µg/mL and 189.11 µg/mL and 120.37 µg/mL and 158.89 µg/mL and 119.72 µg/mL
- Concentration of Theophylline in Rat Serum (Group 2 (CRE pretreatment 3 days), aminophylline 240 mg/kg p.o., 120 min, single rat): 205.63 µg/mL and 140.04 µg/mL and 180.859 µg/mL and 96.55 µg/mL and 68.74 µg/mL and 91.30 µg/mL
- Concentration of Theophylline in Rat Serum (Group 2 (CRE pretreatment 3 days), aminophylline 240 mg/kg p.o., 240 min, single rat): 89.87 µg/mL and 65.03 µg/mL and 61.82 µg/mL and 134.64 µg/mL and 148.86 µg/mL and 115.97 µg/mL
- Concentration of Theophylline in Rat Serum (Group 2 (CRE pretreatment 3 days), aminophylline 240 mg/kg p.o., 360 min, single rat): 35.31 µg/mL and 7.61 µg/mL and 20.21 µg/mL and 233.16 µg/mL and 91.61 µg/mL and 38.01 µg/mL
- Concentration of Theophylline in Rat Serum (Group 2 (CRE pretreatment 3 days), aminophylline 240 mg/kg p.o., 480 min, single rat): 7.16 µg/mL and 34.98 µg/mL and 45.36 µg/mL and 56.71 µg/mL and 33.96 µg/mL and 12.51 µg/mL
- Clt of Theophylline [3]: 0.502 mL/min
- Kel of Theophylline [3]: 0.2042 h⁻¹
- Vd of Theophylline [3]: 0.1475 L
- Clt of Theophylline, Mean [4]: 0.5670 mL/min and 0.567 ± 0.067 mL/min
- Kel of Theophylline, Mean [4]: 0.2706 h⁻¹ and 0.271 ± 0.035 h⁻¹
- Vd of Theophylline, Mean [4]: 0.130 ± 0.014 L
- Cmax of Theophylline (Group 2 (CRE pretreatment), rats, single series): 223.3 µg/mL and 161.4 µg/mL and 158.9 µg/mL and 119.7 µg/mL and 192.9 µg/mL
- Concentration of Theophylline in Rat Serum (Group 3 (Jarsin 300 pretreatment 3 days), aminophylline 240 mg/kg p.o., 15 min, single rat): 4.86 µg/mL and 5.81 µg/mL
- Concentration of Theophylline in Rat Serum (Group 3 (Jarsin 300 pretreatment 3 days), aminophylline 240 mg/kg p.o., 30 min, single rat): 25.01 µg/mL and 34.73 µg/mL and 27.80 µg/mL
- Concentration of Theophylline in Rat Serum (Group 3 (Jarsin 300 pretreatment 3 days), aminophylline 240 mg/kg p.o., 60 min, single rat): 23.33 µg/mL and 30.97 µg/mL and 34.52 µg/mL
- Concentration of Theophylline in Rat Serum (Group 3 (Jarsin 300 pretreatment 3 days), aminophylline 240 mg/kg p.o., 120 min, single rat): 16.13 µg/mL and 44.11 µg/mL and 20.84 µg/mL
- Concentration of Theophylline in Rat Serum (Group 3 (Jarsin 300 pretreatment 3 days), aminophylline 240 mg/kg p.o., 240 min, single rat): 4.46 µg/mL and 16.77 µg/mL and 19.04 µg/mL
- Concentration of Theophylline in Rat Serum (Group 3 (Jarsin 300 pretreatment 3 days), aminophylline 240 mg/kg p.o., 360 min, single rat): 5.85 µg/mL and 11.58 µg/mL
- Concentration of Theophylline in Rat Serum (Group 3 (Jarsin 300 pretreatment 3 days), aminophylline 240 mg/kg p.o., 480 min, single rat): 2.34 µg/mL and 5.71 µg/mL
- Clt of Theophylline [5]: 2.310 mL/min
- Kel of Theophylline [5]: 0.2022 h⁻¹
- Vd of Theophylline [5]: 0.6853 L
- Clt of Theophylline, Mean [6]: 2.671 mL/min and 2.671 ± 0.637 mL/min
- Kel of Theophylline, Mean [6]: 0.2204 h⁻¹ and 0.220 ± 0.033 h⁻¹
- Vd of Theophylline, Mean [6]: 0.722 ± 0.091 L
- Cmax (male, Wistar, rat, in vivo, 240 mg/kg, Cmax of Theophylline, Group 1 (water control), rats, calculated by mean concentrations, 60 minutes): 177 µg/mL
- concentration at 120 min (male, Wistar, rat, in vivo, 240 mg/kg, Concentration of Theophylline in Rat Serum, Group 1 (water control), aminophylline 240 mg/kg p.o., 120 min, single rat): 96.3 µg/mL
- concentration at 15 min (male, Wistar, rat, in vivo, 240 mg/kg, Concentration of Theophylline in Rat Serum, Mean, Group 1 (water control), aminophylline 240 mg/kg p.o., 15 min, mean n=6): 163 µg/mL
- concentration at 30 min (male, Wistar, rat, in vivo, 240 mg/kg, Concentration of Theophylline in Rat Serum, Mean, Group 1 (water control), aminophylline 240 mg/kg p.o., 30 min, mean n=6): 143 µg/mL
- concentration at 60 min (male, Wistar, rat, in vivo, 240 mg/kg, Concentration of Theophylline in Rat Serum, Mean, Group 1 (water control), aminophylline 240 mg/kg p.o., 60 min, mean n=6): 177 µg/mL
- concentration at 120 min (male, Wistar, rat, in vivo, 240 mg/kg, Concentration of Theophylline in Rat Serum, Mean, Group 1 (water control), aminophylline 240 mg/kg p.o., 120 min, mean n=6): 73.4 µg/mL
- concentration at 240 min (male, Wistar, rat, in vivo, 240 mg/kg, Concentration of Theophylline in Rat Serum, Mean, Group 1 (water control), aminophylline 240 mg/kg p.o., 240 min, mean n=6): 104 µg/mL
- concentration at 360 min (male, Wistar, rat, in vivo, 240 mg/kg, Concentration of Theophylline in Rat Serum, Mean, Group 1 (water control), aminophylline 240 mg/kg p.o., 360 min, mean n=6): 58.5 µg/mL
- concentration at 480 min (male, Wistar, rat, in vivo, 240 mg/kg, Concentration of Theophylline in Rat Serum, Mean, Group 1 (water control), aminophylline 240 mg/kg p.o., 480 min, mean n=6): 51 µg/mL
